# Counter-ions that a name gives are not always drawn.
# Columns and labels:
# [1] = biological target: T1, leukotriene D4 (LTD4) induced contraction of guinea pig tracheal tissues (Cavia porcellus, UniProt Q2NNR5); test: In vitro inhibition of LTD4-induced contraction of guinea pig tracheal spiral strips (pA2); format: cell-based, guinea pig (adult male albino Hartley strain); conditions: for Kb: In vitro, LTD4, guinea pig trachea, EC30 relative to carbachol, 30 min pretreatment
# T1 construct: Guinea pig (adult male albino Hartley strain) tracheal spiral strips; from tissue; host or cells: guinea pig trachea (spiral strips, adult male albino Hartley strain)
# T1 sequence (Q2NNR5 1-340): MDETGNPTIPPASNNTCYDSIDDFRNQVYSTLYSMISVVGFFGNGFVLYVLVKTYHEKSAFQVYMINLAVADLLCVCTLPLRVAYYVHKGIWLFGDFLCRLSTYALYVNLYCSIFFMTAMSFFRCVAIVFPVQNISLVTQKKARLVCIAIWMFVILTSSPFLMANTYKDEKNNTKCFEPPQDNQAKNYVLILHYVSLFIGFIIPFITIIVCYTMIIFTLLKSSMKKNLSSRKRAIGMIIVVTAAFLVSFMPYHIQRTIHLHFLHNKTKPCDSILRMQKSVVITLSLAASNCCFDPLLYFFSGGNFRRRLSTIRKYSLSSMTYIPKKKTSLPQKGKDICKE
# Protocol: (§1) The leukotriene antagonist activity of the compounds of this invention is measured by the ability of the compound to inhibit leukotriene induced contraction of guinea pig tracheal tissues in vitro and to inhibit leukotriene induced bronchoconstriction in guinea pigs in vivo. The following methodologies were employed:
# In vitro: Guinea pig (adult male albino Hartley strain) tracheal spiral strips of approximate dimensions 2 to 3 mm cross-sectional width and 3.5 cm length were bathed in modified Krebs buffer in jacketed 10 ml tissue bath and continously aerated with 95% O2 /5% CO2. The tissues were connected via silk suture to force displacement transducers for recording isometric tension. The tissues were equilibrated for 1 hr., pretreated for 15 minutes with meclofenamic acid (1 μM) to remove intrinsic prostaglandin responses, and then pretreated for an additional 30 minutes with either the test compound or vehicle control. A cumulative concentration-response curve for LTD4 on triplicate tissues was generated by successive increases in the bath concentration of the LTD4. In order to minimize intertissue variability, the contractions elicited by LTD4 were standardized as a percentage of the maximum response obtained to a reference agonist, carbachol (10 μM).
# (§2) Calculations: The averages of the triplicate LTD4 concentration-response curves both in the presence and absence of the test compound were plotted on log graph paper. The concentration of LTD4 needed to elicit 30% of the contraction elicited by carbachol was measured and defined as the EC30. The pA2 value for the test compound was determined by the following equations: [formula] In vivo: Anesthetized, spontaneously breathing guinea pigs (Adult male albino Hartley strain) were monitored on a Buxco pulmonary mechanics computer. Changes in airway resistance (RL) were calculated by the computer on a breath-by-breath basis at isovolumic points from signals measuring airflow and transpulmonary pressure using differential pressure transducers. Animals received either test compound or vehicle control intravenously via the jugular vein. LTD4 was then injected into the jugular vein. The bronchoconstriction produced was reflected by % changes in airways resistance relative to the baseline values obtained prior to injection of the test compound or vehicle control. Each guinea pig received either vehicle control or test compound.
# [2] = tested on: leukotriene (LTD4) induced bronchoconstriction in guinea pigs; test: In vivo inhibition of LTD4-induced bronchoconstriction in anesthetized, spontaneously breathing guinea pigs (airway resistance, RL); set-up: species or system guinea pig (adult male albino Hartley strain); conditions: Cavia porcellus, intravenous, LTD4 challenge, guinea pig, read-out: RL (average % inhibition of change in airway resistance)
# Protocol: as §1, §2
# Calculations: The average of 3-6 animals per treatment was calculated using the % changes in the pulmonary parameters for control and test compound-treated animals. The average % inhibition by the test compound was calculated from the following equation: [formula]
SMILES,Kb [1],inhibition in vivo at 5 mg/kg [2],partial agonist (footnote to pA2) ([1]; footnote (c) to pA2 5.0),inhibition in vivo at 10 mg/kg [2]
"CCCCCCCCCCCC/C=C\[C@H](SCCC(=O)O)[C@H](O)CCC(=O)O (relative stereo) [Example 2, 4-hydroxy-5-[(2-carboxyethyl)thio]-6(Z)-nonadecenoic acid]",0.631 µM,91%,–,–
"CCCCCCCCCCCC/C=C\[C@H](SCCC(=O)NCC(=O)O)[C@H](O)CCC(=O)O (relative stereo) [Example 3, 5-[(3-carboxymethylamino-3-oxopropyl)thio]-4-hydroxy-6(Z)-nonadecenoic acid]",0.631 µM,36%,–,–
"CCCCCCCCCCCC/C=C\[C@H](SCCC(=O)N(C)CC(=O)O)[C@H](O)CCC(=O)O (relative stereo) [Example 4, 5-[(3-carboxymethyl-N-methylamino-3-oxopropyl)thio]-4-hydroxy-6(Z)-nonadecenoic acid]",–,90%,–,–
"CCCCCCCCCCCC/C=C\[C@H](SCC(=O)O)[C@H](O)CCC(=O)O (relative stereo) [Example 5, 5-[(carboxymethyl)thio]-4-hydroxy-6(Z)-nonadecenoic acid]",1.26 µM,–,–,–
"CCCCCCCCCCCC/C=C\[C@H](SCCCC(=O)O)[C@H](O)CCC(=O)O (relative stereo) [Example 6, 5-[(3-carboxypropyl)thio]-4-hydroxy-6(Z)-nonadecenoic acid]",0.631 µM,88%,–,–
"CCCCCCCCCCCC/C=C\[C@H](SCCC(N)=O)[C@H](O)CCC(=O)O (relative stereo) [Example 7, 5-[[2-(aminocarbonyl)ethyl]thio]-4-hydroxy-6(Z)-nonadecenoicacid]",7.94 µM,38%,–,–
"CCCCCCCCCCCC/C=C\[C@H](SCCC(=O)O)[C@H](O)CCC(N)=O (relative stereo) [Example 12, 5-[(2-carboxyethyl)thio]-4-hydroxy-6(Z)-nonadecenamide]",3.98 µM,–,–,–
"CCCCCCCCCC/C=C\[C@H](SCCC(=O)O)[C@H](O)CCC(=O)O (relative stereo) [Example 14, 4-hydroxy-5-[(2-carboxyethyl)thio]-6(Z)-heptadecenoic acid]",5.01 µM,–,–,–
"CCCCCCCCCCCCCC/C=C\[C@H](SCCC(=O)O)[C@H](O)CCC(=O)O (relative stereo) [Example 15, 4-hydroxy-5-[(2-carboxyethyl)thio]-6(Z)-heneicosenoic acid]",7.94 µM,–,–,–
"CCCCCCCCCCCC/C=C\[C@H](SCC(N)C(=O)NCC(=O)O)[C@H](O)CCC(=O)O (single isomer, unassigned; isomer 4) [Example 1(i) 4(R),5(S) isomer, hydrate]",6.31 µM,96%,–,–
"CCCCCCCCCCCC/C=C\[C@@H](SCC(N)C(=O)NCC(=O)O)[C@@H](O)CCC(=O)O (single isomer, unassigned; isomer 5) [Example 1(i) 4(S),5(R) isomer, 5-[(2-amino-3-carboxymethylamino-3-oxopropyl)thio]-4-hydroxy-6(Z)-nonadecenoic acid]",10 µM,–,partial agonist,–
"CCCCCCCCCCCC/C=C\[C@H](SCC(N)C(=O)O)[C@H](O)CCC(=O)O (stereo partly drawn) [Example 8(c), 4(R)-Hydroxy-5(S)-[(2-amino-2-carboxyethyl)thio]-6(Z)-nonadecenoic acid, sodium salt]",7.94 µM,–,–,–
"CCCCCCCCCCCC/C=C\[C@@H](SCC(N)C(=O)O)[C@@H](O)CCC(=O)O (stereo partly drawn) [Example 8(d), 4(S)-Hydroxy-5(R)-[(2-amino-2-carboxyethyl)thio]-6(Z)-nonadecenoic acid, sodium salt]",7.94 µM,–,–,–
CCCCCCCCCCCC/C=C\[C@H](SCC(N)C(=O)NCC(N)=O)[C@H](O)CCC(=O)O (some centres unmarked) [Example 9],3.16 µM,98%,–,–
"CCCCCCCCCCCC/C=C\C(SCCC(=O)O)C(O)CC(=O)O (centres unmarked) [Example 10, 3-hydroxy-4-[(2-carboxyethyl)thio]-5(Z)-octadecenoic acid]",–,–,–,88%
"CCCCCCCCCCCC/C=C\C(CCCC(=O)O)SCCC(=O)O (centres unmarked) [Example 11, 5-[(2-carboxyethyl)thio]-6(Z)-non-adecenoic acid]",3.16 µM,–,–,98%
CCCCCCCCCCCC/C=C\C(SCC(N)C(=O)NCC(=O)O)C(O)CCC(N)=O (centres unmarked) [Example 13],12.6 µM,–,–,–
"CCCCCCCCCCCC/C=C\C(CCC(=O)O)SCCC(=O)O (centres unmarked) [Example 16, 4-[(2-carboxyethyl)thio]-5(Z)-octadecenoic acid]",0.251 µM,–,–,–

# Source: patent publication US4775662A, “Leukotriene antagonists” (SmithKline Beckman Corporation, priority 1987, dated 1988)
